Columns and labels:
Conditions in all cases: 72 h
[1] = tested on: BV-173
Outline: (§1)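 Fifteen myeloid leukaemia cell lines were seeded in RPMI 1640 at densities titrated to the linear growth range and placed in 384-well plates with acoustically pre-printed compounds at five tenfold doses from 1 to 10,000 nM, in duplicate. After 72 h at 37 °C with 5% CO2, luminescent ATP viability was normalised to vehicle and to a positive control at 10 µM, and curves were fitted with a four-parameter log-logistic model. The IC50 was obtained from these fits.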

[2] = tested on: HEL
Outline: as §1

[3] = tested on: HL-60
Outline: as §1

[4] = tested on: K-562
Outline: as §1

[5] = tested on: KCL-22
Outline: as §1

[6] = tested on: KG-1
Outline: as §1

[7] = tested on: KU-812
Outline: as §1

[8] = tested on: LAMA-84
Outline: as §1

[9] = tested on: ML-2
Outline: as §1

[10] = tested on: MOLM-13
Outline: as §1

[11] = tested on: MV4-11
Outline: as §1

[12] = tested on: Mono-Mac-6
Outline: as §1

[13] = tested on: NOMO-1
Outline: as §1

[14] = tested on: SHI-1
Outline: as §1

[15] = tested on: THP-1
Outline: as §1

[16] = tested on: BV-173; test: cell viability (% survival relative to DMSO control, bortezomib = 0%); higher = less cytotoxic
Outline: (§2)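 Fifteen myeloid leukaemia cell lines (10 AML, 5 CML) were seeded at a density titrated to the linear growth range into 384-well plates pre-printed with compounds at 1, 10, 100, 1000 or 10000 nM in duplicate. Plates were incubated for 72 h at 37 °C with 5% CO2. Viability was then read by CellTiter-Glo luminescence. Each value is percent survival averaged over the duplicates, with vehicle set to 100% and a 10 µM positive control to 0%.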

[17] = tested on: HEL; test: as above
Outline: as §2

[18] = tested on: HL-60; test: as above
Outline: as §2

[19] = tested on: K-562; test: as above
Outline: as §2

[20] = tested on: KCL-22; test: as above
Outline: as §2

[21] = tested on: KG-1; test: as above
Outline: as §2

[22] = tested on: KU-812; test: as above
Outline: as §2

[23] = tested on: LAMA-84; test: as above
Outline: as §2

[24] = tested on: ML-2; test: as above
Outline: as §2

[25] = tested on: MOLM-13; test: as above
Outline: as §2

[26] = tested on: MV4-11; test: as above
Outline: as §2

[27] = tested on: Mono-Mac-6; test: as above
Outline: as §2

[28] = tested on: NOMO-1; test: as above
Outline: as §2

[29] = tested on: SHI-1; test: as above
Outline: as §2

[30] = tested on: THP-1; test: as above
Outline: as §2

Nc1nc(O)c2c(CCc3ccc(C(=O)N[C@@H](CCC(=O)O)C(=O)O)cc3)c[nH]c2n1 [Pemetrexed]
Conditions	IC50 (cell viability) [nM]
[1]	381
[2]	116
[3]	617
[4]	1660
[5]	279
[6]	> 10000
[7]	239
[8]	58.5
[9]	336
[10]	305
[11]	425
[12]	312
[13]	1370
[14]	2320
[15]	7020

cell viability [%]
Conditions	1 nM	10 nM	100 nM	1000 nM	10000 nM
[16]	89.2	91.9	104	4.73	1.8
[17]	104	90.7	57.8	11.6	7.51
[18]	110	99.6	113	31.5	9.36
[19]	95.8	104	92.3	68.4	27.8
[20]	98.5	102	78.4	36.9	24.3
[21]	92	93.5	91.6	108	102
[22]	98.9	102	71.1	38.6	39.3
[23]	99	99.3	40	30.7	26
[24]	102	101	96.3	14	10.5
[25]	95.6	101	93.5	4.73	1.7
[26]	98.7	94.2	106	13.4	5.7
[27]	91.2	92.2	87.3	23.5	20.3
[28]	91	94.8	82.8	51.9	50.2
[29]	99.2	102	106	68	43.4
[30]	85	96	101	61.7	56.8

C=C1NC(=O)c2cc(CN(C)c3ccc(C(=O)N[C@@H](CCC(=O)O)C(=O)O)s3)ccc2N1 [Raltitrexed]
Conditions	IC50 (cell viability) [nM]
[1]	52.4
[2]	37.6
[3]	422
[4]	201
[5]	69.8
[6]	> 10000
[7]	56
[8]	42.8
[9]	122
[10]	47.9
[11]	91.9
[12]	45.2
[13]	82.9
[14]	562
[15]	193

cell viability [%]
Conditions	1 nM	10 nM	100 nM	1000 nM	10000 nM
[16]	95.6	163	8.17	1.32	3.9
[17]	100	109	6.54	6.59	7.77
[18]	108	127	116	6.78	6.89
[19]	104	121	86.5	49.2	52.4
[20]	103	107	45.4	21.2	22
[21]	101	103	101	100	102
[22]	94.1	104	37.7	34.6	39.1
[23]	97.1	108	27.7	22.4	26.6
[24]	93.9	121	61.6	5.21	6.92
[25]	118	145	5.74	1.25	1.81
[26]	108	110	48.1	4.34	6.68
[27]	94.2	108	19.4	8.75	9.59
[28]	99.5	113	51.3	34.8	31.4
[29]	106	118	99.8	38.4	43.3
[30]	92.9	118	61.4	40.7	46.1

CNC(=C[N+](=O)[O-])NCCSCc1ccc(CN(C)C)o1 [Ranitidine]
Conditions	IC50 (cell viability) [nM]
[1]	> 10000
[2]	> 10000
[3]	> 10000
[4]	> 10000
[5]	> 10000
[6]	> 10000
[7]	> 10000
[8]	> 10000
[9]	> 10000
[10]	> 10000
[11]	> 10000
[12]	> 10000
[13]	> 10000
[14]	> 10000
[15]	> 10000

cell viability [%]
Conditions	1 nM	10 nM	100 nM	1000 nM	10000 nM
[16]	96.7	96.1	105	96.9	108
[17]	113	104	107	104	92.4
[18]	98.1	156	97.5	95.5	121
[19]	108	92.1	93.5	97.3	103
[20]	100	101	103	109	92.9
[21]	104	85.8	126	174	163
[22]	109	101	97.4	96.8	107
[23]	107	89.3	105	104	102
[24]	97.4	113	101	100	98.9
[25]	97.9	94.2	91.6	102	117
[26]	98.5	109	108	114	104
[27]	94.6	96.6	115	95.6	113
[28]	96.3	96.2	108	98.7	101
[29]	98.6	107	96.4	122	104
[30]	105	103	98.2	99.6	102

From the supplement of paper PMC8671470
